The text below walks through data of ChEMBL document CHEMBL4673244 (J Med Chem, 2020).

Series [1] is described as follows: in vitro. The settings on record: human, liver microsomes. A general note: Liver microsomes are a subcellular fraction often used to study metabolism.
Series [2] can be described thus: in vitro. The conditions noted are these: dog, MDCK.
Another series is described as follows: physchem. The settings on record: buffer, pH 7.4.
A short description of series [3]: in vitro. The settings on record: human, hepatocytes.

For orientation: microsomal CLint means a measure of how fast metabolising enzymes remove a compound, apart from limits set by blood flow. Higher therefore signals rapid turnover. For orientation: Papp means a coefficient for how fast a substance crosses the barrier. Higher therefore signals fast passage. As a reminder, the logD is lipophilicity at a set pH, counting ionised and neutral species. A lower logD goes with lower lipophilicity. For `C[C@]1(O)CCN(c2nc(N3C[C@H](O)[C@@H](O)C3)cc(C(F)(F)F)c2C#N)C1`, in the series “in vitro [1]”, the intrinsic metabolic clearance (microsomal CLint) is below 13 µL/min/mg. This molecule had an apparent permeability (Papp) in “in vitro [2]” of 3.5 ×10⁻⁶ cm/s. Besides, in “physchem”, the logD was found to be 2.2.

In general, hepatocyte CLint refers to a measure of how fast metabolising enzymes remove a compound, apart from limits set by blood flow. A higher hepatocyte CLint goes with rapid turnover. For the molecule `C[C@H]1[C@H](O)CN1c1nc(N2C[C@@H]3[C@@H](CC(=O)O)[C@@H]3C2)cc(C(F)(F)F)c1C#N`, the intrinsic metabolic clearance (microsomal CLint) in “in vitro [1]” was below 11 µL/min/mg. Also, the apparent permeability (Papp) in “in vitro [2]” came out at 5.6 ×10⁻⁶ cm/s. In the series “in vitro [3]”, this molecule had a hepatocyte CLint of 26 µL/min/1e6 cells. Moreover, in the series “physchem”, the logD worked out at 1.

In “physchem”, `C[C@H]1[C@H](O)CN1c1nc(N2C[C@@H]3[C@@H](CO)[C@@H]3C2)cc(C(F)(F)F)c1C#N` gave a pH-dependent lipophilicity (logD) of 3.3.

For `C[C@H]1[C@H](O)CN1c1nc(N2C[C@@H]3[C@@H](CC(=O)O)[C@@H]3C2)cc(C(F)(F)F)n1`, the Papp in the series “in vitro [2]” was 1.4 ×10⁻⁶ cm/s. Further, the intrinsic metabolic clearance (hepatocyte CLint) in the series “in vitro [3]” was below 2 µL/min/1e6 cells. This molecule also returned a log distribution coefficient (logD) in “physchem” of 0.1.

For `C[C@H]1[C@H](O)CN1c1nc(N2C[C@@H]3[C@H](C2)[C@H]3C(=O)O)cc(C(F)(F)F)c1C#N`, in “physchem”, the log distribution coefficient (logD) was 0.6.
